Measured values from patent US8114895B2, “Use of bipyridine compound ‘Caerulomycin A’ derivatives and analogs thereof as immunosuppressive agents” (Council of Science and Industrial Research, priority 2005, dated 2012).

Tests used:
Format in all cases: cell-based
Th1 cells (3DO.54.8) = experiment: Proliferation of Th1 cells; settings: anti-CD3 Ab 10 μg/ml; 24 h
Method: Th1 cells (1×10^4 cells/well) were stimulated with anti-CD3 Ab (10 μg/ml) and different doses Caerulomycin A. After 24 h, [^3H]-thymidine was added, and its incorporation was measured 8 h later.

CD4^+ T cells = experiment: CD28, CTLA-4 and LFA-1 expression on T cells by flow cytometry
Method: CD28 and CTLA-4 expression was detected on the surface of the resting and ConA activated CD4^+ T cells by flow cytometric analysis. Briefly, the splenocytes (3×10^6 cells/well) were activated with OVA (200 μg/ml) or ConA (1 μg/ml and 2 μg/ml) and were incubated in the presence of different concentrations of Caerulomycin A (0.0125-0.45 μg/ml). The cultures were harvested after 24, 48, 72 and 96 h and cells were stained for the expression of CD4, CD28 and CTLA-4. Further, cultures were also set where Caerulomycin A was added after 24 h and 48 h of the initiation of cultures and the cells were stained after incubating further for 24 h. The cells were harvested and 3-color staining was done using PE (Phycoerythrin) conjugated anti-CD4 Ab, FITC (Fluorescein isothiocyanate) conjugated anti-CTLA-4, and Cy (Cy-chrome) conjugated CD28 Abs. The cells from each suspension were acquired on CELLQUEST software of FACScan (Becton Dickinson, Mountain View, Calif.). […] The analysis for the mean fluorescence intensity (MFI) was done on histograms where abcissa and ordinate denote log fluorescence and relative cell count, respectively.
Examples establishing the role of Caerulomycin A [isolated from a novel species of Actinoalloteichus] in inducing immunosuppression based on the following: • Splenocytes of BALB/c mice were stimulated with either ConA (1 μg/ml and 2 μg/ml) or LPS (5 μg/ml and 10 μg/ml) and were cultured with different concentrations of Caerulomycin A (0.0003-0.1 μg/ml). […] Radioactivity incorporated was measured by liquid scintillation counting. • Antigen ovalbumin (100 μg/ml) emulsified in Freund's complete adjuvant was injected in a group consisting of 5 BALB/c mice. […] Radioactivity incorporated was measured by liquid scintillation. The culture supernatants were collected after 48 h and cytokines were measured by ELISA. • Immunosuppressive effect of different doses of Caerulomycin A was monitored on naïve CD4^+ T cells, antigen reactive CD4^+ T cells, Th2 clone and Th1 hybridoma. […]

J774 = experiment: Expression of B7-1 and B7-2 on J774
[1] = CD4+ T cells, Caerulomycin A 0.0125-0.45 μg/ml

COc1cc(/C=N/O)nc(-c2ccccn2)c1 [Caerulomycin A, (E)-4-methoxy-2,2′-bipyridine-6-carbaldehyde oxime]
proliferation of Th1 cells (Th1 cells (3DO.54.8)): inhibited the proliferation | expression or percentage of LFA-1 positive cells (CD4^+ T cells): did not exhibit any significant change | expression and percentage of CD28 (CD4^+ T cells; [1]): decreased the expression and percentage | expression and percentage of CTLA-4 positive cells (CD4^+ T cells; [1]): significantly enhanced the expression but also the percentage | expression of B7-1 (J774): no major change | expression of B7-2 (J774): increased the expression
